# Test results reported in ChEMBL document CHEMBL3885881, “DrugMatrix”.
# “And” between values parts separate entries of the source, which are not always exact repeats. Equal entries are not always repeated.
# Species: Rattus norvegicus
# Assay: DrugMatrix - Regimen: Daily Repeat
# Format: toxicity, organism-based, Sprague-Dawley
# Design: regimen Daily Repeat, gender Male, age 6-8 weeks
# Conditions: in vivo, iv; for ABSOLUTE BASOPHIL / ABSOLUTE EOSINOPHIL / ABSOLUTE LYMPHOCYTE / ABSOLUTE MONOCYTE / ABSOLUTE SEGMENTED NEUTROPHIL / BASOPHIL / EOSINOPHIL / ERYTHROCYTE COUNT / HEMATOCRIT / HEMOGLOBIN / LEUKOCYTE COUNT / LYMPHOCYTE / MEAN CORPUSCULAR HEMOGLOBIN / MEAN CORPUSCULAR HEMOGLOBIN CONCENTRATION / MEAN CORPUSCULAR VOLUME / MONOCYTE / NEUTROPHIL / NUCLEATED RED BLOOD CELLS / PLATELET COUNT: tissue Blood; for ALANINE AMINOTRANSFERASE / ALBUMIN / ALKALINE PHOSPHATASE / ASPARTATE AMINOTRANSFERASE / BLOOD UREA NITROGEN / CARBON DIOXIDE / CHLORIDE / CHOLESTEROL / CREATINE PHOSPHOKINASE / CREATININE / GLUCOSE / LACTATE DEHYDROGENASE / LIPASE / PHOSPHORUS / POTASSIUM / SODIUM / TOTAL BILIRUBIN / TOTAL PROTEIN / URIC ACID: tissue Plasma
# [1] = 0 mg/kg, 72 h, dose level Control, time 3 day, vehicle 100 % SALINE
# [2] = 0 mg/kg, 120 h, dose level Control, time 5 day, vehicle 10 % DMSO/SALINE
# [3] = 0 mg/kg, 120 h, dose level Control, time 5 day, vehicle 100 % SALINE
# [4] = 0 mg/kg, […], dose level Control, time 14 day, vehicle 100 % SALINE
# [5] = 4 mg/kg, 120 h, dose level High, time 5 day, vehicle 10 % DMSO/SALINE
smiles,measurement,setting,value
CC(=O)[C@]1(O)Cc2c(O)c3c(c(O)c2[C@@H](O[C@H]2C[C@H](N)[C@H](O)[C@H](C)O2)C1)C(=O)c1ccccc1C3=O [IDARUBICIN],ABSOLUTE BASOPHIL,[1],0 CELLS/uL
same,ABSOLUTE EOSINOPHIL,[1],247.67 CELLS/uL
same,ABSOLUTE LYMPHOCYTE,[1],13190.83 CELLS/uL
same,ABSOLUTE MONOCYTE,[1],307.67 CELLS/uL
same,ABSOLUTE SEGMENTED NEUTROPHIL,[1],1220.5 CELLS/uL
same,BASOPHIL,[1],0%
same,EOSINOPHIL,[1],1.67%
same,ERYTHROCYTE COUNT,[1],5.47 x10E6/uL
same,HEMATOCRIT,[1],33.98%
same,HEMOGLOBIN,[1],12.65 G/DL
same,LEUKOCYTE COUNT,[1],14.97 x10E3/uL
same,LYMPHOCYTE,[1],88.17%
same,MEAN CORPUSCULAR HEMOGLOBIN,[1],23.17 pg
same,MEAN CORPUSCULAR HEMOGLOBIN CONCENTRATION,[1],37.23 G/DL
same,MEAN CORPUSCULAR VOLUME,[1],62.25 fL
same,MONOCYTE,[1],2%
same,NEUTROPHIL,[1],8.17%
same,NUCLEATED RED BLOOD CELLS,[1],0 /100WBC
same,PLATELET COUNT,[1],1307.17 x10E3/uL
same,ALANINE AMINOTRANSFERASE,[1],39.67 u/L
same,ALBUMIN,[1],4.08 G/DL
same,ALKALINE PHOSPHATASE,[1],383.17 u/L
same,ASPARTATE AMINOTRANSFERASE,[1],88.83 u/L
same,BLOOD UREA NITROGEN,[1],18.5 mg/dL
same,CARBON DIOXIDE,[1],27.5 mmol/L
same,CHLORIDE,[1],103 MEQ/L
same,CHOLESTEROL,[1],67.33 mg/dL
same,CREATINE PHOSPHOKINASE,[1],414.67 u/L
same,CREATININE,[1],0.19 mg/dL
same,GLUCOSE,[1],149.33 mg/dL
same,LACTATE DEHYDROGENASE,[1],536.83 u/L
same,LIPASE,[1],8.83 u/L
same,PHOSPHORUS,[1],11.13 mg/dL
same,POTASSIUM,[1],6.23 MEQ/L
same,SODIUM,[1],144.42 MEQ/L
same,TOTAL BILIRUBIN,[1],0.18 mg/dL
same,TOTAL PROTEIN,[1],5.57 G/DL
same,URIC ACID,[1],1.23 mg/dL
same,BASOPHIL,[2],0.28%
same,EOSINOPHIL,[2],0.55%
same,ERYTHROCYTE COUNT,[2],7.09 x10E6/uL
same,HEMATOCRIT,[2],45.85%
same,HEMOGLOBIN,[2],14.93 G/DL
same,LEUKOCYTE COUNT,[2],7.4 x10E3/uL
same,LYMPHOCYTE,[2],84.22%
same,MEAN CORPUSCULAR HEMOGLOBIN,[2],21.05 pg
same,MEAN CORPUSCULAR HEMOGLOBIN CONCENTRATION,[2],32.5 G/DL
same,MEAN CORPUSCULAR VOLUME,[2],64.72 fL
same,MONOCYTE,[2],1.4%
same,NEUTROPHIL,[2],12.45%
same,PLATELET COUNT,[2],1476.75 x10E3/uL
same,ABSOLUTE SEGMENTED NEUTROPHIL,[3],1104.67 CELLS/uL
same,BASOPHIL,[3],1.05% and 0%
same,EOSINOPHIL,[3],0.23% and 1%
same,ERYTHROCYTE COUNT,[3],6.68 x10E6/uL and 5.73 x10E6/uL
same,HEMATOCRIT,[3],42.27% and 36.85%
same,HEMOGLOBIN,[3],13 G/DL and 13.67 G/DL
same,LEUKOCYTE COUNT,[3],19.36 x10E3/uL and 15.13 x10E3/uL
same,LYMPHOCYTE,[3],62.82% and 89.5%
same,MEAN CORPUSCULAR HEMOGLOBIN,[3],19.43 pg and 23.87 pg
same,MEAN CORPUSCULAR HEMOGLOBIN CONCENTRATION,[3],30.68 G/DL and 37.1 G/DL
same,MEAN CORPUSCULAR VOLUME,[3],63.25 fL and 64.33 fL
same,MONOCYTE,[3],3.45% and 2.33%
same,NUCLEATED RED BLOOD CELLS,[3],0.17 /100WBC
same,PLATELET COUNT,[3],1275.5 x10E3/uL and 1266 x10E3/uL
same,ALANINE AMINOTRANSFERASE,[2],21.25 u/L
same,ALBUMIN,[2],4.28 G/DL
same,ALKALINE PHOSPHATASE,[2],337.5 u/L
same,ASPARTATE AMINOTRANSFERASE,[2],87.25 u/L
same,BLOOD UREA NITROGEN,[2],13 mg/dL
same,CARBON DIOXIDE,[2],27 mmol/L
same,CHLORIDE,[2],106.75 MEQ/L
same,CHOLESTEROL,[2],54.5 mg/dL
same,CREATINE PHOSPHOKINASE,[2],424.75 u/L
same,CREATININE,[2],0.47 mg/dL
same,GLUCOSE,[2],135.75 mg/dL
same,LACTATE DEHYDROGENASE,[2],200.25 u/L
same,LIPASE,[2],9 u/L
same,PHOSPHORUS,[2],11.62 mg/dL
same,POTASSIUM,[2],5.58 MEQ/L
same,SODIUM,[2],150.5 MEQ/L
same,TOTAL BILIRUBIN,[2],0.25 mg/dL
same,TOTAL PROTEIN,[2],6.33 G/DL
same,URIC ACID,[2],1.75 mg/dL
same,ALANINE AMINOTRANSFERASE,[3],62.75 u/L and 49.17 u/L
same,ALBUMIN,[3],3.2 G/DL and 4.22 G/DL
same,ALKALINE PHOSPHATASE,[3],320.75 u/L and 352.67 u/L
same,ASPARTATE AMINOTRANSFERASE,[3],112.25 u/L and 95.17 u/L
same,BLOOD UREA NITROGEN,[3],14.25 mg/dL and 18.83 mg/dL
same,CARBON DIOXIDE,[3],36.25 mmol/L and 25.67 mmol/L
same,CHLORIDE,[3],106.25 MEQ/L and 102.67 MEQ/L
same,CHOLESTEROL,[3],63.5 mg/dL and 66.83 mg/dL
same,CREATINE PHOSPHOKINASE,[3],757.75 u/L and 550.33 u/L
same,CREATININE,[3],0.23 mg/dL
same,GLUCOSE,[3],175.5 mg/dL and 186.17 mg/dL
same,LACTATE DEHYDROGENASE,[3],205.25 u/L and 471.33 u/L
same,PHOSPHORUS,[3],11.35 mg/dL and 12.3 mg/dL
same,POTASSIUM,[3],6.7 MEQ/L and 6.35 MEQ/L
same,SODIUM,[3],151.25 MEQ/L and 143.57 MEQ/L
same,TOTAL BILIRUBIN,[3],0.2 mg/dL and 0.18 mg/dL
same,TOTAL PROTEIN,[3],5.78 G/DL and 6.05 G/DL
same,URIC ACID,[3],1.23 mg/dL and 2 mg/dL
same,ABSOLUTE BASOPHIL,[4],400 cells/µL
same,ABSOLUTE EOSINOPHIL,[4],46.7 cells/µL
same,ABSOLUTE LYMPHOCYTE,[4],18600 cells/µL
same,ABSOLUTE MONOCYTE,[4],760 cells/µL
same,BASOPHIL,[4],1.73%
same,EOSINOPHIL,[4],0.2%
same,ERYTHROCYTE COUNT,[4],7.04 x10E6/uL
same,HEMATOCRIT,[4],41.83%
same,HEMOGLOBIN,[4],13.07 G/DL
same,LEUKOCYTE COUNT,[4],24.9 x10E3/uL
same,LYMPHOCYTE,[4],74.43%
same,MEAN CORPUSCULAR HEMOGLOBIN,[4],18.63 pg
same,MEAN CORPUSCULAR HEMOGLOBIN CONCENTRATION,[4],31.33 G/DL
same,MEAN CORPUSCULAR VOLUME,[4],59.43 fL
same,MONOCYTE,[4],3.13%
same,NEUTROPHIL,[4],18.97%
same,PLATELET COUNT,[4],1314.33 x10E3/uL
same,ALANINE AMINOTRANSFERASE,[4],42.67 u/L
same,ALBUMIN,[4],3.6 G/DL
same,ALKALINE PHOSPHATASE,[4],298 u/L
same,ASPARTATE AMINOTRANSFERASE,[4],67.33 u/L
same,BLOOD UREA NITROGEN,[4],14.33 mg/dL
same,CARBON DIOXIDE,[4],41.67 mmol/L
same,CHLORIDE,[4],102.67 MEQ/L
same,CHOLESTEROL,[4],62.67 mg/dL
same,CREATINE PHOSPHOKINASE,[4],338.67 u/L
same,CREATININE,[4],0.7 mg/dL
same,GLUCOSE,[4],147.33 mg/dL
same,LACTATE DEHYDROGENASE,[4],94.33 u/L
same,LIPASE,[4],80 u/L
same,PHOSPHORUS,[4],9.6 mg/dL
same,POTASSIUM,[4],6.67 MEQ/L
same,SODIUM,[4],148 MEQ/L
same,TOTAL BILIRUBIN,[4],0.2 mg/dL
same,TOTAL PROTEIN,[4],6.67 G/DL
same,URIC ACID,[4],1.03 mg/dL
same,BASOPHIL,[5],0.8%
same,EOSINOPHIL,[5],2.95%
same,ERYTHROCYTE COUNT,[5],7.46 x10E6/uL
same,HEMATOCRIT,[5],47.3%
same,HEMOGLOBIN,[5],15.42 G/DL
same,LEUKOCYTE COUNT,[5],0.0975 x10E3/uL
same,LYMPHOCYTE,[5],69%
same,MEAN CORPUSCULAR HEMOGLOBIN,[5],20.73 pg
same,MEAN CORPUSCULAR HEMOGLOBIN CONCENTRATION,[5],32.67 G/DL
same,MEAN CORPUSCULAR VOLUME,[5],63.45 fL
same,MONOCYTE,[5],1.3%
same,NEUTROPHIL,[5],23.9%
same,PLATELET COUNT,[5],879.25 x10E3/uL
same,ALANINE AMINOTRANSFERASE,[5],11.75 u/L
same,ALBUMIN,[5],2.88 G/DL
same,ALKALINE PHOSPHATASE,[5],156 u/L
same,ASPARTATE AMINOTRANSFERASE,[5],63.5 u/L
same,BLOOD UREA NITROGEN,[5],18 mg/dL
same,CARBON DIOXIDE,[5],25 mmol/L
same,CHLORIDE,[5],112 MEQ/L
same,CHOLESTEROL,[5],152.75 mg/dL
same,CREATINE PHOSPHOKINASE,[5],475.25 u/L
same,CREATININE,[5],0.5 mg/dL
same,GLUCOSE,[5],116.5 mg/dL
same,LACTATE DEHYDROGENASE,[5],183.5 u/L
same,LIPASE,[5],13 u/L
same,PHOSPHORUS,[5],9.47 mg/dL
same,POTASSIUM,[5],5.03 MEQ/L
same,SODIUM,[5],151 MEQ/L
same,TOTAL BILIRUBIN,[5],0.2 mg/dL
same,TOTAL PROTEIN,[5],4.57 G/DL
same,URIC ACID,[5],1.45 mg/dL
